The values that follow come from publication PMC7034945 (RSC Advances, 2019).

For this test, the system named is HIV-1 NL4-3 virus. Put plainly: Anti-HIV-1 activity, multicycle assay with HIV-1 NL4-3 in TZM-bl cells. The class given is cell-based. To be noted: for anti-HIV-1 activity (in words) / SI (selectivity index, ratio of CC50/EC50): TZM-bl cells; for anti-HIV-1 activity (in words): at the test concentration; for EC50: Human immunodeficiency virus 1, NL43, TZM-bl.

Regarding `COC(=O)Cn1cc(-c2cccc(C(=O)N[C@@H](Cc3cc(F)cc(F)c3)C(=O)N(C)c3ccc(OC)cc3)c2)nn1` [II-10l, Methyl (S)-2-(4-(3-((3-(3,5-difluorophenyl)-1-((4-methoxyphenyl)(methyl)amino)-1-oxopropan-2-yl)carbamoyl)phenyl)-1H-1,2,3-triazol-1-yl)acetate], the “anti-HIV-1 activity (in words)” value is given as “lost anti-HIV-1 activity completely”. One may read the EC50 as the concentration at which the effect is half-maximal. The low end stands for an effect from little substance, the high end for a need for much substance. Regarding `COc1ccc(N(C)C(=O)[C@H](Cc2cc(F)cc(F)c2)NC(=O)c2cccc(-c3cn(CCCc4ccccc4)nn3)c2)cc1` [II-10g, (S)-N-(3-(3,5-Difluorophenyl)-1-((4-methoxyphenyl)(methyl)amino)-1-oxopropan-2-yl)-3-(1-(3-phenylpropyl)-1H-1,2,3-triazol-4-yl)benzamide], the EC50 was > 32.8 µM. In the case of `COc1ccc(N(C)C(=O)[C@H](Cc2ccccc2)NC(=O)c2cccc(-c3cn(CC(=O)Nc4ccccc4)nn3)c2)cc1` [III-15e, (S)-N-(1-((4-Methoxyphenyl)(methyl)amino)-1-oxo-3-phenylpropan-2-yl)-3-(1-(2-oxo-2-(phenylamino)ethyl)-1H-1,2,3-triazol-4-yl)benzamide], the EC50 was > 34 µM. As to “Methyl (S)-2-(4-(3-((1-((4-methoxyphenyl)(methyl)amino)-1-oxo-3-phenylpropan-2-yl)carbamoyl)phenyl)-1H-1,2,3-triazol-1-yl)acetate [III-15m]”, the “anti-HIV-1 activity (in words)” value is recorded as “lost anti-HIV-1 activity completely”.

With `COc1ccc(N(C)C(=O)[C@H](Cc2cc(F)cc(F)c2)NC(=O)c2cccc(-c3cn(Cc4ccccc4[N+](=O)[O-])nn3)c2)cc1` [II-10a, (S)-N-(3-(3,5-Difluorophenyl)-1-((4-methoxyphenyl)(methyl)amino)-1-oxopropan-2-yl)-3-(1-(2-nitrobenzyl)-1H-1,2,3-triazol-4-yl)benzamide], the concentration for a half-maximal effect (EC50) was > 35.5 µM. On to `COc1ccc(N(C)C(=O)[C@H](Cc2cc(F)cc(F)c2)NC(=O)c2cccc(-c3cn(Cc4ccc5ccccc5c4)nn3)c2)cc1` [II-10j, (S)-N-(3-(3,5-Difluorophenyl)-1-((4-methoxyphenyl)(methyl)amino)-1-oxopropan-2-yl)-3-(1-(naphthalen-2-ylmethyl)-1H-1,2,3-triazol-4-yl)benzamide], for which the EC50 was > 31.7 µM. Turning to `COc1ccc(N(C)C(=O)[C@H](Cc2cc(F)cc(F)c2)NC(=O)c2cn(Cc3ccccc3C)nn2)cc1` [I-8a, (S)-N-(3-(3,5-Difluorophenyl)-1-((4-methoxyphenyl)(methyl)amino)-1-oxopropan-2-yl)-1-(2-methylbenzyl)-1H-1,2,3-triazole-4-carboxamide], a half-maximal effect (EC50) was put at 8.85 ± 2.69 µM. Moreover, the “SI (selectivity index, ratio of CC50/EC50)” value (Table 1) is recorded as >2.18. For `COc1ccc(N(C)C(=O)[C@H](Cc2cc(F)cc(F)c2)NC(=O)c2cccc(-c3cn(Cc4ccc(S(N)(=O)=O)cc4)nn3)c2)cc1` [II-10f, (S)-N-(3-(3,5-Difluorophenyl)-1-((4-methoxyphenyl)(methyl)amino)-1-oxopropan-2-yl)-3-(1-(4-sulfamoylbenzyl)-1H-1,2,3-triazol-4-yl)benzamide], the concentration giving a half-maximal response (EC50) was > 30.3 µM. In turn, `COc1ccc(N(C)C(=O)[C@H](Cc2cc(F)cc(F)c2)NC(=O)c2cn(CS(=O)(=O)c3ccccc3)nn2)cc1` [I-8t, (S)-N-(3-(3,5-Difluorophenyl)-1-((4-methoxyphenyl)(methyl)amino)-1-oxopropan-2-yl)-1-((phenylsulfonyl)methyl)-1H-1,2,3-triazole-4-carboxamide] showed an EC50 of 4.21 ± 0.9 µM. The “SI (selectivity index, ratio of CC50/EC50)” value (Table 1) was >4.17.

For `COc1ccc(N(C)C(=O)[C@H](Cc2cc(F)cc(F)c2)NC(=O)c2cn(Cc3ccccc3C#N)nn2)cc1` [I-8g, (S)-1-(2-Cyanobenzyl)-N-(3-(3,5-difluorophenyl)-1-((4-methoxyphenyl)(methyl)amino)-1-oxopropan-2-yl)-1H-1,2,3-triazole-4-carboxamide], the concentration for a half-maximal effect (EC50) was found to be 9.61 ± 2.07 µM. Also, the “SI (selectivity index, ratio of CC50/EC50)” value (Table 1) is >1.96. With `COc1ccc(N(C)C(=O)[C@H](Cc2ccccc2)NC(=O)c2cccc(-c3cn(Cc4ccc([N+](=O)[O-])cc4)nn3)c2)cc1` [III-15c, (S)-N-(1-((4-Methoxyphenyl)(methyl)amino)-1-oxo-3-phenylpropan-2-yl)-3-(1-(4-nitrobenzyl)-1H-1,2,3-triazol-4-yl)benzamide], the concentration giving a half-maximal response (EC50) is > 33.9 µM. Molecule `COc1ccc(N(C)C(=O)[C@H](Cc2cc(F)cc(F)c2)NC(=O)c2cn(Cc3ccccc3Cl)nn2)cc1` [I-8d, (S)-1-(2-Chlorobenzyl)-N-(3-(3,5-difluorophenyl)-1-((4-methoxyphenyl)(methyl)amino)-1-oxopropan-2-yl)-1H-1,2,3-triazole-4-carboxamide] came in with an EC50 of 9.63 ± 2.04 µM. Moreover, the “SI (selectivity index, ratio of CC50/EC50)” value (Table 1) is on record as >1.92.

On to `COc1ccc(N(C)C(=O)[C@H](Cc2cc(F)cc(F)c2)NC(=O)c2cn(Cc3cccc4ccccc34)nn2)cc1` [I-8m, (S)-N-(3-(3,5-Difluorophenyl)-1-((4-methoxyphenyl)(methyl)amino)-1-oxopropan-2-yl)-1-(naphthalen-1-ylmethyl)-1H-1,2,3-triazole-4-carboxamide], for which the EC50 was 14.8 ± 3.24 µM. Besides, the “SI (selectivity index, ratio of CC50/EC50)” value (Table 1) is recorded as >1.22. For `COc1ccc(N(C)C(=O)[C@H](Cc2cc(F)cc(F)c2)NC(=O)c2cn(Cc3cccc(Cl)c3)nn2)cc1` [I-8e, (S)-1-(3-Chlorobenzyl)-N-(3-(3,5-difluorophenyl)-1-((4-methoxyphenyl)(methyl)amino)-1-oxopropan-2-yl)-1H-1,2,3-triazole-4-carboxamide], in that order: 8.33 ± 1.41 µM and >2.22.

Take `COc1ccc(N(C)C(=O)[C@H](Cc2ccccc2)NC(=O)c2cccc(-c3cn(Cc4cccc([N+](=O)[O-])c4)nn3)c2)cc1` [III-15b, (S)-N-(1-((4-Methoxyphenyl)(methyl)amino)-1-oxo-3-phenylpropan-2-yl)-3-(1-(3-nitrobenzyl)-1H-1,2,3-triazol-4-yl)benzamide]: the EC50 is > 33.9 µM.

In the case of `COC(=O)CCCn1cc(-c2cccc(C(=O)N[C@@H](Cc3cc(F)cc(F)c3)C(=O)N(C)c3ccc(OC)cc3)c2)nn1` [II-10n, Methyl (S)-4-(4-(3-((3-(3,5-difluorophenyl)-1-((4-methoxyphenyl)(methyl)amino)-1-oxopropan-2-yl)carbamoyl)phenyl)-1H-1,2,3-triazol-1-yl)butanoate], the EC50 is > 33.8 µM and the “anti-HIV-1 activity (in words)” value is given as “lost anti-HIV-1 activity completely”. On to `COc1ccc(N(C)C(=O)[C@H](Cc2cc(F)cc(F)c2)NC(=O)c2cccc(-c3cn(CCc4ccsc4)nn3)c2)cc1` [II-10h, (S)-N-(3-(3,5-Difluorophenyl)-1-((4-methoxyphenyl)(methyl)amino)-1-oxopropan-2-yl)-3-(1-(2-(thiophen-3-yl)ethyl)-1H-1,2,3-triazol-4-yl)benzamide], for which it took 7.48 ± 2.83 µM to reach a half-maximal effect (EC50) and the “anti-HIV-1 activity (in words)” value was “exhibited anti-HIV-1 activity at the test concentration”. Under “Table 2”, the “SI (selectivity index, ratio of CC50/EC50)” value is recorded as >4.44. For the molecule `COc1ccc(N(C)C(=O)[C@H](Cc2cc(F)cc(F)c2)NC(=O)c2cn(Cc3ccc(C#N)cc3)nn2)cc1` [I-8i, (S)-1-(4-Cyanobenzyl)-N-(3-(3,5-difluorophenyl)-1-((4-methoxyphenyl)(methyl)amino)-1-oxopropan-2-yl)-1H-1,2,3-triazole-4-carboxamide], the EC50 stood at 5.84 ± 1.53 µM. Under “Table 1”, the “SI (selectivity index, ratio of CC50/EC50)” value is reported as >3.23. As to `CCOC(=O)Cn1cc(-c2cccc(C(=O)N[C@@H](Cc3cc(F)cc(F)c3)C(=O)N(C)c3ccc(OC)cc3)c2)nn1` [II-10m, Ethyl (S)-2-(4-(3-((3-(3,5-difluorophenyl)-1-((4-methoxyphenyl)(methyl)amino)-1-oxopropan-2-yl)carbamoyl)phenyl)-1H-1,2,3-triazol-1-yl)acetate], the “anti-HIV-1 activity (in words)” value was “lost anti-HIV-1 activity completely”. Consider `COc1ccc(N(C)C(=O)[C@H](Cc2cc(F)cc(F)c2)NC(=O)c2cccc(-c3cn(CC(=O)Nc4ccccc4)nn3)c2)cc1` [II-10e, (S)-N-(3-(3,5-Difluorophenyl)-1-((4-methoxyphenyl)(methyl)amino)-1-oxopropan-2-yl)-3-(1-(2-oxo-2-(phenylamino)ethyl)-1H-1,2,3-triazol-4-yl)benzamide], for which the EC50 was 8.16 ± 2.56 µM and the “anti-HIV-1 activity (in words)” value is “exhibited anti-HIV-1 activity at the test concentration”. The “SI (selectivity index, ratio of CC50/EC50)” value (Table 2) was >3.92.

For the molecule `COc1ccc(N(C)C(=O)[C@H](Cc2cc(F)cc(F)c2)NC(=O)c2cn(Cc3cccc(C#N)c3)nn2)cc1` [I-8h, (S)-1-(3-Cyanobenzyl)-N-(3-(3,5-difluorophenyl)-1-((4-methoxyphenyl)(methyl)amino)-1-oxopropan-2-yl)-1H-1,2,3-triazole-4-carboxamide], the EC50 came to 3.58 ± 0.64 µM. Further, the “SI (selectivity index, ratio of CC50/EC50)” value (Table 1) is on record as >5.27. Molecule `COc1ccc(N(C)C(=O)[C@H](Cc2cc(F)cc(F)c2)NC(=O)c2cn(Cc3ccc(C)cc3)nn2)cc1` [I-8c, (S)-N-(3-(3,5-Difluorophenyl)-1-((4-methoxyphenyl)(methyl)amino)-1-oxopropan-2-yl)-1-(4-methylbenzyl)-1H-1,2,3-triazole-4-carboxamide] came in with an EC50 of 10.6 ± 3.46 µM. Further, the “SI (selectivity index, ratio of CC50/EC50)” value (Table 1) is recorded as >1.82. With `COc1ccc(N(C)C(=O)[C@H](Cc2cc(F)cc(F)c2)NC(=O)c2cn(Cc3ccc(Cl)cc3)nn2)cc1` [I-8f, (S)-1-(4-chlorobenzyl)-N-(3-(3,5-difluorophenyl)-1-((4-methoxyphenyl)(methyl)amino)-1-oxopropan-2-yl)-1H-1,2,3-triazole-4-carboxamide], the midpoint of the response, the EC50, lay at 8.7 ± 1.65 µM. Besides, the “SI (selectivity index, ratio of CC50/EC50)” value (Table 1) is on record as >2.13. With `COc1ccc(N(C)C(=O)[C@H](Cc2ccccc2)NC(=O)c2cccc(-c3cn(Cc4ccc5ccccc5c4)nn3)c2)cc1` [III-15j, (S)-N-(1-((4-Methoxyphenyl)(methyl)amino)-1-oxo-3-phenylpropan-2-yl)-3-(1-(naphthalen-2-ylmethyl)-1H-1,2,3-triazol-4-yl)benzamide], the EC50 was > 33.6 µM.
